Data on 22 compounds can be found in patent US6777422B2, “Substituted tetrahydroisoquinolines as C5a receptor modulators” (Neurogen Corp., priority 2002, dated 2004).

The term Ki denotes a dissociation constant, usually derived from enzyme kinetics or from competition with a known ligand.

SMILES strings stand for the structures. Bounds are passed on as bounds.

In the assay the target is T1, human C5a receptor (Homo sapiens, UniProt P21730).
T1 construct: endogenous in cells; host or cells: U937 cells differentiated with 1 mM dibutyryl cAMP
T1 sequence (P21730 1-350): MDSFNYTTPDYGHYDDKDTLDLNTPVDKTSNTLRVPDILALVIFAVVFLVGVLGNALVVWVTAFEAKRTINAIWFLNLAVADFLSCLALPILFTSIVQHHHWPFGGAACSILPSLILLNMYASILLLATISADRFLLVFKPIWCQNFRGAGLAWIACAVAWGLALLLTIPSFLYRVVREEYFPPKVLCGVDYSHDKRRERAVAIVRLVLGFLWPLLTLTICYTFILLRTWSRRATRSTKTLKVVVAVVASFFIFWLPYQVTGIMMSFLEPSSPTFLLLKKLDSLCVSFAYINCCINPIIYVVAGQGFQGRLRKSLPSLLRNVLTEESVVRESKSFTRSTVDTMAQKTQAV
As to the kind of experiment: C5a receptor mediated calcium mobilization assay (Example 20). It counts as cell-based. Conditions: differentiated U937 cells, read-out: Ca2+ (Ki in the standard assay of C5a receptor mediated calcium mobilization). As to the method:
Calcium Mobilization Assays
U937 cells are grown in differentiation media (1 mM dibutyryl cAMP in RPMI 1640 medium containing 10% fetal bovine serum) for 48 hrs at 37° C. then reseeded onto 96-well plates suitable for use in a FLIPR™ Plate Reader (Molecular Devices Corp., Sunnyvale Calif.). Cells are grown an additional 24 hours (to 70-90% confluence) before the assay. The cells are then washed once with Krebs Ringer solution. FLUO-3 calcium sensitive dye (Molecular Probes, Inc. Eugene, Oreg.) is added to 10 μg/mL and incubated with the cells at room temperature for 1 to 2 hours. The 96 well plates are then washed to remove excess dye. Fluorescence responses, measured by excitation at 480 nm and emission at 530 nm, are monitored upon the addition of human C5a to the cells to a final concentration of 0.01-30.0 nM, using the FLIPR™ device (Molecular Devices).
C. Assays for the Identification of Receptor Modulatory Agents: Antagonists and Agonists
The calcium mobilization assay described above may be readily adapted for identifying test compounds that have agonist or antagonist activity at the human C5a receptor.
For example, in order to identify antagonist compounds, differentiated U937 cells are washed and incubated with Fluo-3 dye as described above. One hour prior to measuring the fluorescence signal, a subset of the cells is incubated with 1 μM of at least one compound to be tested. The fluorescence response upon the subsequent addition of 0.3 nM (final concentration) human recombinant C5a is monitored using the FLIPR™ plate reader. Antagonist compounds elicit at least a 2-fold decrease in the fluorescence response relative to that measured in the presence of human C5a alone. Preferred antagonist compounds elicit at least a 5-fold, preferably at least a 10-fold, and more preferably at least a 20-fold decrease in the fluorescence response relative to that measured in the presence of human C5a alone.
On the technique in general: Calcium assays in cells follow changes in intracellular calcium, usually with a dye or a luminescent sensor.
For the compound `Cc1ccc(Cl)c([C@@H]2c3ccccc3CCN2CC(=O)N(Cc2ccccc2F)C2Cc3ccccc3C2)c1` (stereo in doubt) [Compound 52, 2-[1-(2-chloro-5-methylphenyl)-3,4-dihydroisoquinolin-2(1H)-yl]-N-(indan-2-yl)-N-(2-fluorobenzyl)acetamide], the Ki was under 1000 nM. Take `Cc1ccccc1[C@@H]1c2ccccc2[C@@H](C)CN1CC(=O)N(Cc1ccccc1F)C1Cc2ccccc2C1` (stereo in doubt) [Compound 46, N-(indan-2-yl)-N-(2-fluorobenzyl)-2-[(1R,4R)-4-methyl-1-(2-methylphenyl)-3,4-dihydroisoquinolin-2(1H)-yl]acetamide]: the Ki was under 1000 nM. With `Cc1ccc(F)cc1C1c2ccccc2CCN1CC(=O)N(Cc1ccccc1F)C1Cc2ccccc2C1` (stereo not shown) [Compound 57, N-(indan-2-yl)-N-(2-fluorobenzyl)-2-[1-(5-fluoro-2-methylphenyl)-3,4-dihydroisoquinolin-2(1H)-yl]acetamide], the inhibition constant Ki is under 1000 nM. For the compound `C[C@@H](C(=O)N(Cc1ccccc1F)C1Cc2ccccc2C1)N1CCc2ccccc2[C@@H]1c1c(F)cccc1F` [Compound 89, (2S)-2-[(1R)-1(2,6-difluorophenyl)-3,4-dihydroisoquinolin-2(1H)-yl]-N-(indan-2-yl)-N-(2-fluorobenzyl)propanamide], the Ki is under 1000 nM. As to `Cc1ccccc1C1c2ccccc2[C@@H](C)CN1CC(=O)N(Cc1ccccc1F)C1Cc2ccccc2C1` (stereo partly drawn) [Compound 27, N-(indan-2-yl)-N-(2-fluorobenzyl)-2-[(4R)-4-methyl-1-(2-methylphenyl)-3,4-dihydroisoquinolin-2(1H)-yl]acetamide], the Ki is under 1000 nM.

For `Cc1cc(CN(C(=O)[C@H](C)N2CCc3ccccc3[C@@H]2c2c(Cl)cccc2Cl)C2Cc3ccccc3C2)cc(C)c1O` [Compound 110, (2S)-2-[(1R)-1-(2,6-dichlorophenyl)-3,4-dihydroisoquinolin-2(1H)-yl]-N-(indan-2-yl)-N-(4-hydroxy-3,5-dimethylbenzyl) propanamide], the Ki is under 1000 nM.

Regarding `COc1ccc2c(c1)CC(N(Cc1ccccc1F)C(=O)CN1CCc3ccccc3C1c1ccccc1Cl)C2` (stereo not shown) [Compound 93, 2-[1-(2-chlorophenyl)-3,4-dihydroisoquinolin-2(1H)-yl]-N-(2-fluorobenzyl)-N-(5-methoxy-indan-2-yl)acetamide], the Ki is under 1000 nM. In the case of `C[C@@H](C(=O)N(Cc1ccccc1F)C1Cc2ccccc2C1)N1CCc2ccccc2[C@@H]1c1ccccc1F` [Compound 60, (2S)-N-(indan-2-yl)-N-(2-fluorobenzyl)-2-[(1R)-1-(2-fluorophenyl)-3,4-dihydroisoquinolin-2(1H)-yl]propanamide], the Ki was under 1000 nM. Take `Cc1cccc([C@H]2c3ccccc3CCN2[C@@H](C)C(=O)N(Cc2ccccc2F)C2Cc3ccccc3C2)c1C` [Compound 67, (2S)-N-(indan-2-yl)-2-[(1R)-1-(2,3-dimethylphenyl)-3,4-dihydroisoquinolin-2(1H)-yl]-N-(2-fluorobenzyl)propanamide]: the Ki was under 1000 nM. With `O=C(CN1CCc2ccccc2[C@@H]1c1ccccc1F)N(Cc1ccccc1F)C1Cc2ccccc2C1` [Compound 58, N-(indan-2-yl)-N-(2-fluorobenzyl)-2-[(1R)-1-(2-fluorophenyl)-3,4-dihydroisoquinolin-2(1H)-yl]acetamide] the figure was under 1000 nM; with `Cc1ccccc1[C@@H]1c2ccccc2CCN1[C@@H](C)C(=O)N(Cc1ccccc1F)C1Cc2ccccc2C1` (relative stereo) [Compound 19, N-(indan-2-yl)-N-(2-fluorobenzyl)-2-[1-(2-methylphenyl)-3,4-dihydroisoquinolin-2(1H)-yl]propanamide], under 1000 nM; with `O=C(CN1CCc2ccccc2C1c1ccc(O)cc1)N(Cc1ccccc1F)C1Cc2ccccc2C1` (stereo not shown) [Compound 123, N-(indan-2-yl)-N-(2-fluorobenzyl)-2-[1-(4-hydroxyphenyl)-3,4-dihydroisoquinolin-2(1H)-yl]acetamide], under 1000 nM. Then `C[C@@H](C(=O)N(Cc1ccccc1F)C1Cc2ccccc2C1)N1CCc2ccccc2[C@@H]1c1c(F)cccc1Cl` [Compound 103, (2S)-2-[(1R)-1-(2-chloro-6-fluorophenyl)-3,4-dihydroisoquinolin-2(1H)-yl]-N-(indan-2-yl)-N-(2-fluorobenzyl)propanamide], with under 1000 nM; and `Cc1ccc(Cl)cc1[C@@H]1c2ccccc2CCN1CC(=O)N(Cc1ccccc1F)C1Cc2ccccc2C1` (stereo in doubt) [Compound 51, 2-[1-(5-chloro-2-methylphenyl)-3,4-dihydroisoquinolin-2(1H)-yl]-N-(indan-2-yl)-N-(2-fluorobenzyl)acetamide], with under 1000 nM.

Regarding `C[C@@H](C(=O)N(CCc1ccccc1F)Cc1ccccc1F)N1CCc2ccccc2[C@@H]1c1ccccc1Cl` [Compound 109, (2S)-2-[(1R)-1-(2-chlorophenyl)-3,4-dihydroisoquinolin-2(1H)-yl]-N-(2-fluorobenzyl)-N-[2-(2-fluorophenyl)ethyl] propanamide], the Ki is under 1000 nM.

Consider `O=C(CN1CCc2ccccc2[C@H]1c1cccc(Cl)c1Cl)N(Cc1ccccc1F)C1Cc2ccccc2C1` (stereo in doubt) [Compound 36, 2-[1-(2,3-dichlorophenyl)-3,4-dihydroisoquinolin-2(1H)-yl]-N-(indan-2-yl)-N-(2-fluorobenzyl)acetamide], for which the Ki is under 1000 nM.

With `Cc1cccc([C@@H]2c3ccccc3CCN2[C@@H](C)C(=O)N(Cc2ccccc2F)C2Cc3ccccc3C2)c1C` [Compound 68, (2S)-N-(indan-2-yl)-2-[(1S)-1-(2,3-dimethylphenyl)-3,4-dihydroisoquinolin-2(1H)-yl]-N-(2-fluorobenzyl)propanamide], the Ki is under 1000 nM.

For `Cc1ccc(F)c([C@H]2c3ccccc3CCN2[C@@H](C)C(=O)N(Cc2ccccc2F)C2Cc3ccccc3C2)c1` [Compound 86, (2S)-N-(indan-2-yl)-N-(2-fluorobenzyl)-2-[(1R)-1-(2-fluoro-5-methylphenyl)-3,4-dihydroisoquinolin-2(1H)-yl]propanamide], the Ki is under 1000 nM.

With `COc1cccc(CN(C(=O)CN2CCc3ccccc3C2c2ccccc2C)C2Cc3ccccc3C2)c1` (stereo not shown) [Compound 79, N-(indan-2-yl)-N-(3-methoxybenzyl)-2-[1-(2-methylphenyl)-3,4-dihydroisoquinolin-2(1H)-yl]acetamide], the Ki was under 1000 nM. With `C[C@H]1CN(CC(=O)N(Cc2ccccc2F)C2Cc3ccccc3C2)[C@@H](c2ccccc2F)c2ccccc21` [Compound 54, N(indan-2-yl)-N-(2-fluorobenzyl)-2-[(1R,4R)-1-(2-fluorophenyl)-4-methyl-3,4-dihydroisoquinolin-2(1H)-yl]acetamide] the figure was under 1000 nM; with `Cc1ccc(Cl)c([C@H]2c3ccccc3CCN2[C@@H](C)C(=O)N(Cc2ccccc2F)C2Cc3ccccc3C2)c1` [Compound 84, (2S)-2-[(1R)-1-(2-chloro-5-methylphenyl)-3,4-dihydroisoquinolin-2(1H)-yl]-N-(indan-2-yl)-N-(2-fluorobenzyl)propanamide], under 1000 nM; with `C[C@@H](C(=O)N(Cc1cccc(OC(F)F)c1F)C1Cc2ccccc2C1)N1CCc2ccccc2[C@@H]1c1ccccc1Cl` [Compound 120, (2S)-2-[(1R)-1-(2-chlorophenyl)-3,4-dihydroisoquinolin-2(1H)-yl]-N-[3-(difluoromethoxy)-2-fluorobenzyl]-N-(indan-2-yl)propanamide], under 1000 nM.
